This note sets out measurements from ChEMBL document CHEMBL5370609, “Amidine-Based Cationic Conjugated Oligoelectrolytes with Antimicrobial Activity against Pseudomonas aeruginosa Biofilms” (J Med Chem, 2023).

≈ marks a conversion by molar mass, not a printed value. Calls of active or inactive are those of the source. The rule behind the calls is not given here.

In one data set the test system is Escherichia coli. As to the kind of experiment: Antibacterial activity against Escherichia coli ATCC 25922 assessed as inhibition of bacterial growth incubated for overnight by broth microdilution method. It is filed as functional.
The subject of the next data set is Klebsiella pneumoniae. As to the kind of experiment: Antibacterial activity against Klebsiella pneumoniae ATCC 700603 assessed as inhibition of bacterial growth incubated overnight by broth microdilution method. The data set is classed as functional.
Data set [1] concerns Pseudomonas aeruginosa. Kind of data set: Antibacterial activity against Pseudomonas aeruginosa ATCC 27853 assessed as inhibition of bacterial growth incubated overnight by broth microdilution method. The data set is classed as functional.
Data set [2] concerns Pseudomonas aeruginosa. As to the kind of experiment: Antibacterial activity against Pseudomonas aeruginosa PAO1 assessed as inhibition of bacterial growth incubated overnight by broth microdilution method. It is filed as functional.
The subject of data set [3] is Pseudomonas aeruginosa. As to the kind of experiment: Inhibition of biofilm formation in Pseudomonas aeruginosa PAO1 at below MIC incubated for 24 hrs by crystal violet staining based analysis. It is filed as functional, organism-based.
Data set [4] concerns Pseudomonas aeruginosa. As to the kind of experiment: Inhibition of biofilm formation in Pseudomonas aeruginosa PAO1 incubated for 24 hrs by crystal violet staining based analysis. The data set is classed as functional.
Data set [5] has as its system Pseudomonas aeruginosa. Kind of data set: Antibiofilm activity in Pseudomonas aeruginosa PAO1 assessed as eradication of preformed biofilm at 64 to 128 ug/ml incubated for 24 hr by BacTiter Glo reagent based luminescence analysis. It is filed as functional, organism-based. As to conditions: dose 64-128 µg/ml.
The subject of data set [6] is Pseudomonas aeruginosa. As to the kind of experiment: Induction of spontaneous resistance development in Pseudomonas aeruginosa PAO1 assessed as frequency of resistance at 2 to 4 times of MIC incubated for 48 hrs by FoR assay. The data set is classed as functional.
In data set [7] the test system is Pseudomonas aeruginosa. Kind of data set: Antibiofilm activity against preformed biofilm in Pseudomonas aeruginosa PAO1 assessed as bacteria killing at 1024 ug/ml incubated for 24 hrs by BacTiter Glo reagent based luminescence analysis. As to conditions: dose 1024.0 µg/ml. The data set is classed as functional, organism-based.
In data set [8] the test system is Pseudomonas aeruginosa. As to the kind of experiment: Induction of resistance development in Pseudomonas aeruginosa PAO1 assessed as fold increase in MIC measured after consecutive passages for 21 days by serial passaging assay relative to day 1 MIC. It is filed as functional. The following applies: time 21 day.
The test system of data set [9] is Pseudomonas aeruginosa. As to the kind of experiment: Bactericidal activity against Pseudomonas aeruginosa PAO1 assessed as reduction in viable bacteria at 4 times of MIC measured after 4 to 8 hrs by time-kill kinetics assay. It is filed as functional, organism-based. As to conditions: time 4-8 hrs.
A short description of data set [10]: Cytotoxicity against human HepG2 cells assessed as reduction in cell viability incubated for 24 hrs by MTT assay. It is filed as toxicity, cell-based.
Data set [11] in a line: Selectivity index, IC50 for cytotoxicity against human HepG2 cells to MIC for antibacterial activity against Pseudomonas aeruginosa ATCC 27853 assessed as inhibition of bacterial growth. The following applies: read-out: Selectivity Index. The data set is classed as toxicity, cell-based.
Another data set relates to Staphylococcus aureus. As to the kind of experiment: Antibacterial activity against Staphylococcus aureus ATCC 29213 assessed as inhibition of bacterial growth incubated overnight by broth microdilution method. The data set is classed as functional.

As to COLISTIN, the MIC in the data set with Escherichia coli, in the data set with Klebsiella pneumoniae and in the data set with Pseudomonas aeruginosa [1] was 2 µg/mL throughout.
Regarding POLYMYXIN B, the MIC with Pseudomonas aeruginosa [2] was 2 µg/mL. Moreover, the inhibition result with Pseudomonas aeruginosa [3] was “inactive”. Besides, in the data set on Pseudomonas aeruginosa [4], the MBIC50 amounted to 2 µg/mL and the MBIC90 was found to be 2 µg/mL. For the same compound, the Activity in the data set on Pseudomonas aeruginosa [5] is 100%.
Turning to `NC[C@H]1O[C@H](O[C@H]2[C@H](O)[C@@H](O[C@H]3O[C@H](CO)[C@@H](O)[C@H](N)[C@H]3O)[C@H](N)C[C@@H]2N)[C@H](N)C[C@@H]1O` [TOBRAMYCIN], in the data set on Pseudomonas aeruginosa [6], the result was Active. In the data set on Pseudomonas aeruginosa [7], the outcome was Active. The MIC in the data set on Pseudomonas aeruginosa [2] amounted to 0.5 µg/mL (≈ 1.07 µM). The inhibition entry in the data set on Pseudomonas aeruginosa [3] is “inactive”. Also, the “fold change (FC)” value in the data set on Pseudomonas aeruginosa [8] was determined as 64. For the same compound, in the data set on Pseudomonas aeruginosa [4], the MBIC50 is 0.5 µg/mL and the MBIC90 was 0.5 µg/mL. Moreover, in the data set on Pseudomonas aeruginosa [9], the result was inactive.
Turning to `C/N=C(/C)NCCCOc1cc(/C=C/c2ccc(/C=C/c3cc(OCCCN/C(C)=N\C)cc(OCCCN/C(C)=N/C)c3)cc2)cc(OCCCN/C(C)=N/C)c1.CC(=O)O.CC(=O)O.CC(=O)O.CC(=O)O`, the IC50 at 24 h in data set [10] was more than 1020 µg/mL. Besides, the selectivity ratio in data set [11] is more than 32. The MIC in the data set with Escherichia coli is 2 µg/mL; in the data set with Klebsiella pneumoniae, 16 µg/mL; in the data set with Pseudomonas aeruginosa [1], 32 µg/mL; in the data set on Staphylococcus aureus, 1 µg/mL.
Take `C(=C\c1cc(OCCCNC2=NCCC2)cc(OCCCNC2=NCCC2)c1)/c1ccc(/C=C/c2cc(OCCCNC3=NCCC3)cc(OCCCNC3=NCCC3)c2)cc1.CC(=O)O.CC(=O)O.CC(=O)O.CC(=O)O`: in data set [10], the IC50 at 24 h is 1020 µg/mL. Also, the selectivity ratio in data set [11] turned out to be 64. For the same compound, the MIC in the data set with Escherichia coli stood at 2 µg/mL; in the data set on Klebsiella pneumoniae, 16 µg/mL; in the data set on Pseudomonas aeruginosa [1], 16 µg/mL; with Staphylococcus aureus it was 1 µg/mL.
On to `CC(=O)O.CC(=O)O.CC(=O)O.CC(=O)O.N=C(CC1CC1)NCCCOc1cc(/C=C/c2ccc(/C=C/c3cc(OCCCNC(=N)CC4CC4)cc(OCCCNC(=N)CC4CC4)c3)cc2)cc(OCCCNC(=N)CC2CC2)c1`, for which the IC50 at 24 h in data set [10] was found to be 256 µg/mL. In addition, the selectivity ratio in data set [11] stood at 32. The minimum inhibitory concentration (MIC) was determined as 2 µg/mL with Escherichia coli, 4 µg/mL in the data set with Klebsiella pneumoniae, 8 µg/mL with Pseudomonas aeruginosa [1] and 1 µg/mL in the data set with Staphylococcus aureus.
In the case of `CC(=O)O.CC(=O)O.CC(=O)O.CC(=O)O.CN(CCCOc1cc(/C=C/c2ccc(/C=C/c3cc(OCCCN(C)C(=N)C4CC4)cc(OCCCN(C)C(=N)C4CC4)c3)cc2)cc(OCCCN(C)C(=N)C2CC2)c1)C(=N)C1CC1`, the IC50 at 24 h in data set [10] turned out to be 1020 µg/mL. Further, the selectivity ratio in [11] is 128. The MIC worked out at 1 µg/mL in the data set on Escherichia coli, 8 µg/mL in the data set on Klebsiella pneumoniae, 8 µg/mL with Pseudomonas aeruginosa [1] and 1 µg/mL in the data set with Staphylococcus aureus.
As to `CC(=O)O.CC(=O)O.CC(=O)O.CC(=O)O.CCCN(CCCOc1cc(/C=C/c2ccc(/C=C/c3cc(OCCCN(CCC)C(=N)CC)cc(OCCCN(CCC)C(=N)CC)c3)cc2)cc(OCCCN(CCC)C(=N)CC)c1)C(=N)CC`, the IC50 at 24 h in data set [10] was 32 µg/mL. Besides, the selectivity ratio in data set [11] was found to be 2. Also, the MIC was found to be 2 µg/mL in the data set on Escherichia coli, 8 µg/mL in the data set on Klebsiella pneumoniae, 16 µg/mL with Pseudomonas aeruginosa [1] and 1 µg/mL with Staphylococcus aureus.
